Publication PMC10792649 (Current Research in Microbial Sciences, 2023)

Target: OROV endonuclease (N-terminal endonuclease domain of OROV RNA-polymerase) (Oropouche virus, UniProt A0A0B5CUJ1)
Assay: fluorescence assay, cleavage of labelled DNA FAM-TCTCTAGCAGTGGCGCC-TAM
Format: biochemical

Work on `COc1cc2[nH]c3c(OC)c(OC)ccc3c(=O)c2c(OC)c1OC` [FAC21, 1,2,3,5,6-Pentamethoxy-9-(10H)-acridinone] yielded an IC50 of 1400 ± 300 nM.
